Key:
[1] = target: T1, His-DNMT1 (182 kDa, human) (Homo sapiens, UniProt P26358); experiment: DNMT1 assay (tritiated SAM Flashplate methylation assay); format: biochemical; settings: for inhibition at 10 µM: compound at 10 μM; for inhibition at 32 µM: compound at 32 μM
T1 construct: His; made in house
Experimental: His-DNMT1 (182 kDa, human) was cloned, expressed and purified as described in Halby et al. (ChemBioChem 2012, 13, 157-65). The reaction was performed in a 10 μL total reaction volume in low volume NBS™ 384-well microplates (Corning), containing the tested compound (up to 1% DMSO), 1 μM of a SAM/[methyl-^3H] SAM (3 TBq/mmol, PerkinElmer) mix in a ratio of 3-to-1 (isotopic dilution 1*:3), 0.3 μM of biotinylated hemimethylated DNA duplex (5′-GATmCGCmCGATGmCGmCGAATmCGmCGATmCGATGmCGAT-3′ and BIOT-5′-[…]-3′), and 90 nM of DNMT1 in methylation buffer (20 mM HEPES pH 7.2, 1 mM EDTA, 50 mM KCl, 25 μg/mL BSA). The reaction was incubated at 37° C. for 2 hours. 8 μL are then transferred into a streptavidin 96-well scintillant coated Flashplate™ (PerkinElmer) containing 190 μL of 20 μM SAH in 50 mM Tris-HCl pH 7.4. The Flashplate™ was agitated at room temperature for 1 hour, washed three times with 200 μL of 0.05% Tween®-20 in 50 mM Tris-HCl pH 7.4, and read in 200 μL of 50 mM Tris-HCl pH 7.4 on TopCount NXT™ (PerkinElmer).

[2] = target: T2, human C-terminal DNMT3A (a.a. 623-908) (Homo sapiens, UniProt Q9Y6K1); experiment: DNMT3A assay (restriction-based fluorescence assay); format: biochemical; settings: for inhibition at 1 µM: compound at 1 μM; for inhibition at 3.2 µM: compound at 3.2 μM
T2 construct: The human C-terminal DNMT3A (a.a. 623-908); made in house
T2 sequence (Q9Y6K1 627-912): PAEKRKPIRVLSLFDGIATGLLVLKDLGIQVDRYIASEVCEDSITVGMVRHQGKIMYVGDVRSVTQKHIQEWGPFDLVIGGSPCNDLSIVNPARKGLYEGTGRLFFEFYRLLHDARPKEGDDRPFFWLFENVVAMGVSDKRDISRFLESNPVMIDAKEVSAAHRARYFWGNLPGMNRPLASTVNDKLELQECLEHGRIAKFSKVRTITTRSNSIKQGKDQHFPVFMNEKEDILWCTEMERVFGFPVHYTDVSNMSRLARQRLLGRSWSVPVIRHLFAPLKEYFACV
From the text: DNMT3A enzyme inhibition was adapted from the restriction-based fluorescence assay protocol described in Ceccaldi et al. (ChemBioChem 2011, 12, 1337-45). Briefly, a 5′-labelled biotin oligonucleotide is hybridized to its complementary strand labelled with 6-carboxyfluorescein at the 3′-end into a 384 well microplate (black Optiplates; Perkin Elmer) pre-coated with avidin. The duplex contains a unique CpG site overlapping with a restriction site of a methylation sensitive restriction enzyme. The human C-terminal DNMT3A (a.a. 623-908), produced as described in Gros et al. (Nucleic Acids Research 2013 41(19):e185), was added in each well (200 ng/well) and mixed with the chemical compounds at desired concentrations and freshly prepared AdoMet (20 μM final concentration) to start the reaction in a total volume of 50 μL. After 1 hour incubation at 37° C. each well were washed three times with PBS, Tween-20 0.05%, NaCl (500 mM) and three more times with PBST. Specific fluorescent signals were detected with the methylation-sensitive restriction enzyme HpyCH4IV (NEB) as described and measured on a Perkin Elmer Envision detector. The percentage of inhibition is reported. The formula used to calculate the percentage of inhibition is [(X−Y)/X]×100, where X is the signal determined in the absence of the inhibitor and Y is the signal obtained in the presence of the inhibitor. The concentration at which 50% of efficacy of inhibition is observed (EC50) was determined by analysis of a concentration range of the tested compound in triplicates. The non-linear regression fittings with sigmoidal dose-response (variable slope) were performed with GraphPad Prism 4.03 (GraphPad Software).

[3] = system: luciferase reporter gene under the control of the partially methylated CMV promoter in KG-1 cell line; experiment: Gene expression (CMV-Luc reactivation) in KG-1 cells; format: cell-based, human; settings: 24 h, induction factor vs DMSO control, mean of 3 experiments ± standard error; for Reactivation fold of luciferase gene reporter, 0.1 μM: compound at 0.1 μM; for Reactivation fold of luciferase gene reporter, 1 μM: compound at 1 μM; for Reactivation fold of luciferase gene reporter, 5 μM: compound at 5 μM; for Reactivation fold of luciferase gene reporter, 10 μM: compound at 10 μM
Experimental: Gene Expression. (CMV-Luc Reactivation)
KG-1 cell line, stably transfected with the luciferase Firefly (Luc+ from pGL3 by Promega) reporter gene under the control of the CMV promoter (from pEGFP-N1 by Clontech) partially methylated (50%), is seeded at 20,000 cell per well in 96-well plate. After 24 h of incubation in the presence of the compounds or the solvant DMSO, the induction of the promoter is measured by quantification of luciferase with the Brite-lite™ assay system (Perkin Elmer) according to the manufacturer protocol. The luminescence is measured on EnVision™ Multilabel Plate Reader (Perkin Elmer) and the data are expressed in induction factor compared to the DMSO control condition.

[4] = system: KG-1 human leukemia cells; experiment: Anti-proliferative activity on KG-1 (ATPLite cell viability); format: cell-based; settings: KG-1 cells; for inhibition at 0.1 µM: compound at 0.1 μM, read-out: % proliferation inhibition 0.1 μM; for inhibition at 1 µM: compound at 1 μM, read-out: % proliferation inhibition 1 μM; for inhibition at 5 µM: compound at 5 μM, read-out: % proliferation inhibition 5 μM; for inhibition at 10 µM: compound at 10 μM, read-out: % proliferation inhibition 10 μM
Experimental: Anti-Proliferative Activity. (on KG-1)
KG-1 human leukemia cells were obtained from the ATCC (USA) and cultivated in RPMI 1640 medium (with HEPES and Glutamine, BE12-115F, Lonza, France) supplemented with, respectively, 20% and 15% foetal calf serum (Lonza, France), at 37° C. and under 5% CO2. To measure the anti-proliferative properties of tested molecules, 2×10^4 cells are seeded at day 0 in a 96 wells plate. The compounds to be tested, stored at −20° C. as 10^−2 M stock solution in 100% DMSO, are freshly diluted on day 1 in RPMI 1640 medium, before adding a dose range of 3.2 nM to 10 μM to the cells. This treatment is repeated on day 2 and 3, and on day 4 cell viability is assessed using the ATPLite™ kit from Perkin (ATPlite™ 1 Step Luminescence Assay System, ref 3016739), following the provider instructions. The raw data are analyzed with GraphPad Prism software (v4.03) to generate EC50 values corresponding to the compound concentrations giving 50% reduction in cell viability. The values presented are the mean results of at least two independent experiments. […]
At the end of the experiment, cell viability was evaluated by determining the level of ATP released by viable cells.
EC50 values were determined with curve fitting analysis method (non linear regression model with a sigmoid dose response, variable Hill slope coefficient) provided by the Prism Software (GraphPad). Results were expressed as average EC50 values (concentration of tested compound that inhibits 50% of the maximum effect for the considered compound).

T1 sequence (P26358 whole entry): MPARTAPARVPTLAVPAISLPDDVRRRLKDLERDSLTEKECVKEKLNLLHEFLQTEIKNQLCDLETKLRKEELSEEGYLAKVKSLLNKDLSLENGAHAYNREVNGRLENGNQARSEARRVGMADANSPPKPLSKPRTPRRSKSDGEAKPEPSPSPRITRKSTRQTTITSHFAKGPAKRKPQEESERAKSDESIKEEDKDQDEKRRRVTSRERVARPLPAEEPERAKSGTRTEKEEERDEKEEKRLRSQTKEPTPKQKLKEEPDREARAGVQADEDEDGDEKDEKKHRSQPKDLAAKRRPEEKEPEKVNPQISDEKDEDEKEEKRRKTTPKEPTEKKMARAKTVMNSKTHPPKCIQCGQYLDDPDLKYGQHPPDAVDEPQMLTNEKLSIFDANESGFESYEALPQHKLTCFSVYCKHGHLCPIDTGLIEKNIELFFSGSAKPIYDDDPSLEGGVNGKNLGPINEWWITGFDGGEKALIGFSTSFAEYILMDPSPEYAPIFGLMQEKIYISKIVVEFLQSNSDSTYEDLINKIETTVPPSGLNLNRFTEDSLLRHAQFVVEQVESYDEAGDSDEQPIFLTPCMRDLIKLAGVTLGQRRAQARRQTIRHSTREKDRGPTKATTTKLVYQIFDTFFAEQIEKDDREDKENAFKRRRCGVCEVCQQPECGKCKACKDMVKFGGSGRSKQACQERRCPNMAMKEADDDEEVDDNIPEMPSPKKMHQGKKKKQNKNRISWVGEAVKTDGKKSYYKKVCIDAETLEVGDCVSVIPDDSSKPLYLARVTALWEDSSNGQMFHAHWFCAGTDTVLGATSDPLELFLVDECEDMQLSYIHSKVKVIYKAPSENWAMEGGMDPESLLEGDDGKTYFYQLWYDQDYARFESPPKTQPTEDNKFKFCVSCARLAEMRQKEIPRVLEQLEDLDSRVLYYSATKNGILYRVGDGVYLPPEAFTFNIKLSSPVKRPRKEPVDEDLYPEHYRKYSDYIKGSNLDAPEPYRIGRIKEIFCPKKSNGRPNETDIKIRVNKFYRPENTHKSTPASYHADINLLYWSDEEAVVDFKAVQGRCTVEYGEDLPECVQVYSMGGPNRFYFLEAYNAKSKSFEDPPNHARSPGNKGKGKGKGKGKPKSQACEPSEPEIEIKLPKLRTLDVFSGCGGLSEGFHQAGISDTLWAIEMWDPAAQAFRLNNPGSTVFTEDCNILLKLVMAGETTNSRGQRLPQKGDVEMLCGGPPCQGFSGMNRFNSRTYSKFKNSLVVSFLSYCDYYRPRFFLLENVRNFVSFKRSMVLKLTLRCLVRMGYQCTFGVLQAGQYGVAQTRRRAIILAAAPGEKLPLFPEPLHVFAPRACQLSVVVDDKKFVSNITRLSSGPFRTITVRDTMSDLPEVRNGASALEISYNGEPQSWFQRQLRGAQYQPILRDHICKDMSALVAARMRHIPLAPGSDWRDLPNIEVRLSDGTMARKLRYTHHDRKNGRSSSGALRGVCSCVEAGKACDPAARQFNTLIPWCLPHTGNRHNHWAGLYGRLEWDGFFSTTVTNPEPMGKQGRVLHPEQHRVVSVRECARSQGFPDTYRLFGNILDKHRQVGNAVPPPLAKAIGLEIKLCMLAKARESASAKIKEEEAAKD

| SMILES | inhibition at 10 µM [1] [%] | inhibition at 32 µM [1] [%] | inhibition at 1 µM [2] [%] | inhibition at 3.2 µM [2] [%] | Reactivation fold of luciferase gene reporter, 0.1 μM [3] [fold] | Reactivation fold of luciferase gene reporter, 1 μM [3] [fold] | Reactivation fold of luciferase gene reporter, 5 μM [3] [fold] | Reactivation fold of luciferase gene reporter, 10 μM [3] [fold] | inhibition at 0.1 µM [4] [%] | inhibition at 1 µM [4] [%] | inhibition at 5 µM [4] [%] | inhibition at 10 µM [4] [%] | EC50 [1] [µM] | melting point [°C] | EC50 [2] [µM] | EC50 ([4]; 96 h, treatment on days 1-3, viability on day 4 (ATPLite)) [µM] |
| --- | --- | --- | --- | --- | --- | --- | --- | --- | --- | --- | --- | --- | --- | --- | --- | --- |
| Oc1ccc2c(NCCCc3ccccc3)ncnc2c1CN1CCN(CCNc2ccnc3ccccc23)CC1 [Compound A, 4-((3-phenylpropyl)amino)-8-((1-(2-(quinolin-4-ylamino)ethyl)piperazin-1-ylmethyl))quinazoline-7-ol] | 0 | 0 | 0 | 18 | 1.1 ± 0.1 | 1.2 ± 0.1 | 4.4 ± 0.5 | 6.0 ± 0.6 | -0.8 | 6.1 | 29.7 | 84.5 | – | – | – | – |
| c1ccc(CN2CCC(Nc3nc(N4CCN(c5ccccc5)CC4)nc4cc(OCC5CCN(CCNc6ccnc7ccccc67)CC5)ccc34)CC2)cc1 [Compound G, N-(1-benzylpiperidin-4-yl)-2-(4-phenylpiperazin-1-yl)-7-((1-(2-(quinolin-4-ylamino)ethyl)piperidin-4-yl)methoxy)quinazolin-4-amine] | 54 | 100 | 57 | 95 | 1.1 ± 0.0 | 5.3 ± 0.4 | 0.2 ± 0.1 | 0.0 ± 0.0 | -2.2 | 32.2 | 99.6 | 99.8 | 10 | 122 to 124 | – | – |
| Clc1nc(NCCCc2ccccc2)c2ccc(OCC3CCN(CCNc4ccnc5ccccc45)CC3)cc2n1 [Compound B, 4-((3-phenylpropyl)amino)-2-chloro-7-((1-(2-(quinolin-4-ylamino)ethyl)piperidin-4-yl)methoxy)quinazoline] | 5 | 93 | 0 | 73 | 1.1 ± 0.0 | 1.4 ± 0.0 | 5.8 ± 1.6 | 0.0 ± 0.0 | -1.7 | 3.8 | 95.9 | 99.9 | 19 | – | – | – |
| COc1cc2c(NC3CCN(Cc4ccccc4)CC3)nc(N3CCN(c4ccccc4)CC3)nc2cc1OCC1CCN(CCNc2ccnc3ccccc23)CC1 [E, N-(1-benzylpiperidin-4-yl)-6-methoxy-2-(4-phenylpiperazin-1-yl)-7-((1-(2-(quinolin-4-ylamino)ethyl)piperidin-4-yl)methoxy)quinazolin-4-amine] | 59 | 100 | 74 | 100 | 1.1 ± 0.0 | 3.5 ± 0.0 | 1.3 ± 1.2 | 0.0 ± 0.0 | -2.3 | 15.4 | 92.1 | 99.8 | 10 | 124 to 126 | 0.6 | 2.5 |
| CN1CCN(c2nc(NCCCc3ccccc3)c3ccc(OCC4CCN(CCNc5ccnc6ccccc56)CC4)cc3n2)CC1 [Compound C, 4-((3-phenylpropyl)amino)-7-((1-(2-(quinolin-4-ylamino)ethyl)piperidin-4-yl)methoxy)-2-(4-methylpiperazin-1-yl)quinazoline] | 0 | 94 | 0 | 43 | 1.1 ± 0.0 | 1.7 ± 0.1 | 0.1 ± 0.0 | 0.0 ± 0.0 | -3.1 | 5.7 | 99.1 | 99.7 | 23 | – | – | – |
| Clc1nc(NCCCc2ccccc2)c2ccc(OCC3CCN(CCNc4ccncc4)CC3)cc2n1 [Compound H] | – | – | 0 | 32 | – | – | – | – | – | – | – | – | – | – | – | – |
| CCN(CC)CCNc1nc(NCCCc2ccccc2)c2ccc(OCC3CCN(CCNc4ccnc5ccccc45)CC3)cc2n1 [Compound D, 4-((3-phenylpropyl)amino)-N^2-(2-(diethylamino)ethylenediamine)-7-((1-(2-(quinolin-4-ylamino)ethyl)piperidin-4-yl)methoxy)quinazoline] | 35 | 98 | 52 | 81 | 1.1 ± 0.0 | 1.7 ± 0.0 | 12.7 ± 0.6 | 1.1 ± 1.0 | -2.3 | 13.2 | 79.7 | 99.5 | 13 | – | – | – |
